Where a name gives a salt, the structure may show the parent alone.

One may read the IC50 as the point on the concentration scale where inhibition reaches its midpoint.

The target in test [1] is T1, human recombinant 5-HT2C receptor (Homo sapiens, UniProt P28335).
T1 construct: purchased PerkinElmer
T1 sequence (P28335 33-458): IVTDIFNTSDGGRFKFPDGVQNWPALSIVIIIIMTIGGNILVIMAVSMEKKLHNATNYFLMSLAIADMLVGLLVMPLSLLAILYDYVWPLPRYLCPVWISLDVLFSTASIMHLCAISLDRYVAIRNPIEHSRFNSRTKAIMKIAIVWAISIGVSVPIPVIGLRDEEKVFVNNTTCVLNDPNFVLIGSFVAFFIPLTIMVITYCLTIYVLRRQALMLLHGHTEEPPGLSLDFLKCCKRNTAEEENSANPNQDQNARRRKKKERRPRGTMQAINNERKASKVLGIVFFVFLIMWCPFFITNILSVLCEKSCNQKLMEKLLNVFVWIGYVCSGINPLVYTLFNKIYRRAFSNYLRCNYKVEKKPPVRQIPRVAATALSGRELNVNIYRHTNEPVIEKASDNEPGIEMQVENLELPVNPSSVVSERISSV
Put plainly: Binding affinity for serotonin 5-HT2C receptor ([3H]Mesulergine). The note with it: CHO-K1 membranes, 1.3 nM [3H]Mesulergine. Summed up:
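Competition binding with [3H]mesulergine; nonspecific binding defined with 100 uM mianserin. Incubation 60 min at 27, stopped by rapid filtration onto glass fiber filters presoaked in 0.5% PEI.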

Test [2] concerns the target T2, human recombinant serotonin 5-HT2A receptor (Homo sapiens, UniProt P28223).
T2 construct: purchased PerkinElmer Life and Analytical Sciences, USA; host or cells: CHO-K1
Put plainly: Binding affinity for serotonin 5-HT2A receptor ([3H]Ketanserin). The settings on record: CHO-K1 expressed receptor, 1 nM [3H]Ketanserin. Summed up: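 Membranes from CHO-K1 cells expressing recombinant receptor (5 ug/well) incubated 60 min at 27 with 1 nM [3H]ketanserin in 50 mM Tris-HCl pH 7.4, 4 mM CaCl2, 0.1% ascorbic acid; mianserin 20 uM defined nonspecific binding. Filtration and counting; IC50 by nonlinear regression over 7-8 concentrations in duplicate.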

Test [3] has as its target T3, human serotonin transporter (Homo sapiens, UniProt P31645).
T3 construct: purchased PerkinElmer; host or cells: HEK-293
Put plainly: Binding affinity for serotonin transporter ([3H]Imipramine). The note with it: HEK-293 membranes, 2 nM [3H]Imipramine. Summed up: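 Membranes from HEK-293 cells expressing human serotonin transporter (5 ug/well) incubated with compound and 2 nM [3H]imipramine in 50 mM Tris-HCl pH 7.4, 120 mM NaCl, 5 mM KCl, 30 min at 27. Bound ligand separated by filtration onto glass fiber filters presoaked in 0.5% PEI, washed with ice-cold Tris-HCl/0.9% NaCl.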

For test [4], the system named is mice. Put plainly: Anti-depressants activity in forced swimming test. In kind it is in vivo. The settings on record: 100 mg/kg po, 60 min before testing, hydrochloride. As to the method: To evaluate the anti-depressants activity of the compounds, the inhibitory effects on immobility in forced swimming test in mice were measured according to the methods described by Porsolt et al. [Porsolt R D et al., Eur J Pharmacol. 1978, 51, 291-294].
Each mouse was placed in a 25-cm glass cylinder (10 cm diameter) containing 15 cm of water maintained at 22±1 , and was forced to swim for 10 min. Twenty-four hours later, the mouse was replaced into the cylinder and the total duration of immobility was recorded during the last 5 min of the 6-min testing period. Mice are judged immobile when they float in an upright position and make only small movements to keep their head above water. Test drugs were suspended in 3% Tween 80 solution, and administered orally (po) 60 min before the testing.

T2 sequence (P28223 whole entry): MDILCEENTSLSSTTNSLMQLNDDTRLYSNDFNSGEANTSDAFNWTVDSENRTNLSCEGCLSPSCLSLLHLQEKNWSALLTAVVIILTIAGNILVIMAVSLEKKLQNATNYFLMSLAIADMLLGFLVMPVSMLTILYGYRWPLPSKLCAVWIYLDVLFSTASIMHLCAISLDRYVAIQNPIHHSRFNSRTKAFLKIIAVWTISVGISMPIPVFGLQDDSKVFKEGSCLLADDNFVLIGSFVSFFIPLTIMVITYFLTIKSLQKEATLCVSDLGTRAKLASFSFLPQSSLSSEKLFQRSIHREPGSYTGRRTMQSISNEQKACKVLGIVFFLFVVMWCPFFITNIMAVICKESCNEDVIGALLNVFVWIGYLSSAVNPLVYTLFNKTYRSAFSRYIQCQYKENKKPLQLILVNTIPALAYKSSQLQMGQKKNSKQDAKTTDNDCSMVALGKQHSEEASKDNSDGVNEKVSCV
T3 sequence (P31645 whole entry): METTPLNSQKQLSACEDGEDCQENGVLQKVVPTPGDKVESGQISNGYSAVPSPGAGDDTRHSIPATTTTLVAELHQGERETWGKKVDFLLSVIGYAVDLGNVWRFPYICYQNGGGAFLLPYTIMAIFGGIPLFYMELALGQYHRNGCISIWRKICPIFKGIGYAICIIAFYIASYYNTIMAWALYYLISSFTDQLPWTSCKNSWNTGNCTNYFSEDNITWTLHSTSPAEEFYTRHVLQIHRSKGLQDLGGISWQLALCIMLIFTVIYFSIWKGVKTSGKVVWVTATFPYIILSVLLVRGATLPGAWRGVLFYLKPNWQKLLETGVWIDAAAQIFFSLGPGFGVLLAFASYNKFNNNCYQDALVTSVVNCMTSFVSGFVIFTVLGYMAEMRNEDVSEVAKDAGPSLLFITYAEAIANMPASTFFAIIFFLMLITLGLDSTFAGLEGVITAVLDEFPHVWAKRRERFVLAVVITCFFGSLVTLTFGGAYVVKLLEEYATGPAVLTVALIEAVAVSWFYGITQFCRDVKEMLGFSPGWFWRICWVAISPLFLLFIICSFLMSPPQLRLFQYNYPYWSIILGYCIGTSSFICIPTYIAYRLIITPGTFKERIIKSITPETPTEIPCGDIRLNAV

For `Cc1[nH]c(-c2ccccc2)cc1C(=O)NCCN1CCN(c2cccc(Cl)c2Cl)CC1.Cl` [Example 48, N-(2-(4-(2,3-dichlorophenyl)piperazin-1-yl)ethyl)-2-methyl-5-phenyl-1H-pyrrole-3-carboxamide hydrochloride], the 50% inhibitory concentration (IC50) was 156 nM in test [1], 175 nM in test [2] and 57 nM in test [3]. Moreover, the “immobility in forced swimming test” value in test [4] is 26.1%.
Take `C=CCCc1cc(C(=O)NCCCN2CCN(c3cccc(Cl)c3Cl)CC2)c(C)[nH]1` [Example 135, 5-(but-3-enyl)-N-(3-(4-(2,3-dichlorophenyl)piperazin-1-yl)propyl)-2-methyl-1H-pyrrole-3-carboxamide]: the IC50 was 157 nM in test [1], 65 nM in test [2] and 144 nM in test [3].
The corresponding values for `O=C(NCCCN1CCN(c2cccc(Cl)c2Cl)CC1)c1cc(-c2ccccc2)[nH]c1Cl` [Example 114, 2-chloro-N-(3-(4-(2,3-dichlorophenyl)piperazin-1-yl)propyl)-5-phenyl-1H-pyrrole-3-carboxamide] are 107 nM, 22 nM and 59 nM.
On the same counts, the results for `CCCn1c(-c2cccc(OC)c2)cc(C(=O)NCCCN2CCN(c3cccc(Cl)c3Cl)CC2)c1C` [Example 82, N-(3-(4-(2,3-dichlorophenyl)piperazin-1-yl)propyl)-5-(3-methoxyphenyl)-2-methyl-1-propyl-1H-pyrrole-3-carboxamide hydrochloride] are 43 nM, 138 nM and 196 nM.
The corresponding values for `Cc1c(C(=O)NCCCCN2CCN(c3cccc(Cl)c3Cl)CC2)cc(-c2ccccc2)n1C` [Example 36, N-(4-(4-(2,3-dichlorophenyl)piperazin-1-yl)butyl)-1,2-dimethyl-5-phenyl-1H-pyrrole-3-carboxamide hydrochloride] are 32 nM, 28 nM and 93 nM.
As to `O=C(NCCCN1CCN(c2cccc(Cl)c2Cl)CC1)c1c[nH]c(-c2ccccc2)c1` [Example 124, N-(3-(4-(2,3-dichlorophenyl)piperazin-1-yl)propyl)-5-phenyl-1H-pyrrole-3-carboxamide], the values for the half-maximal inhibitory concentration (IC50) in test [1], in test [2] and in test [3] were 106 nM, 23 nM and 54 nM, respectively.
`Cc1[nH]c(-c2ccc(Cl)cc2)cc1C(=O)NCCCCN1CCN(c2cccc(Cl)c2Cl)CC1` [Example 47, 5-(4-chlorophenyl)-N-(4-(4-(2,3-dichlorophenyl)piperazin-1-yl)butyl)-2-methyl-1H-pyrrole-3-carboxamide hydrochloride]: the 50% inhibitory concentration (IC50) in test [1] is 62 nM; in test [2] it was 56 nM; in test [3], 122 nM.
The corresponding values for `CCCn1c(-c2ccc(Cl)cc2)cc(C(=O)NCCCN2CCN(c3cccc(Cl)c3Cl)CC2)c1C` [Example 66, 5-(4-chlorophenyl)-N-(3-(4-(2,3-dichlorophenyl)piperazin-1-yl)propyl)-2-methyl-1-propyl-1H-pyrrole-3-carboxamide hydrochloride] are 41 nM, 333 nM and 1160 nM.
On to `Cc1c(C(=O)NCCCN2CCN(c3cccc(Cl)c3Cl)CC2)cc(-c2ccccc2)n1Cc1ccccc1` [Example 19, 1-Benzyl-N-(3-(4-(2,3-dichlorophenyl)piperazin-1-yl)propyl)-2-methyl-5-phenyl-1H-pyrrole-3-carboxamide], for which the IC50 in test [1] was 220 nM; in test [2] it was 354 nM; in test [3] it was 125 nM.

These data come from US8895558B2, “Arylpiperazine-containing pyrrole 3-carboxamide derivatives for treating depressive disorders” (Green Cross Corporation, priority 2008, dated 2014).
